Results from patent US7169591B1, “Preparation of enantio-specific epoxides” (priority 1999, dated 2007).
Values joined by “and” are separate entries in the source; they are usually repeats but may differ in a detail not shown here. Identical values can stand only once.

Assays:
[1] = test system: Burkholderia sp. strain ENVBF1; test: Enantiomeric ratio of monoepoxides (chiral GC), strain ENVBF1; type: cell-based
Method: (§1) To determine the ratio of R and S isomers of the epoxides formed from the oxidation of the alkenes, samples were analyzed for the presence of the epoxides and alkenes by gas chromatography as described above. When the epoxide concentration neared its maximum, or when the 80–90% of the substrate was degraded, the enantiomeric ratio of epoxides produced was determined by injecting a sample of the headspace gas onto a GC equipped with a chiral separation column (RT-BDEXSE; Restek, Inc., Bellefonte, Pa.) and a flame ionization detector. The column was maintained at 50° C.

[2] = test system: Burkholderia cepacia G4 (T2MO); test: Enantiomeric ratio of monoepoxides (chiral GC), strain G4; type: cell-based
Method: as §1

[3] = test system: Pseudomonas sp. strain ENVPC5; test: Enantiomeric ratio of monoepoxides (chiral GC), strain ENVPC5; type: cell-based; conditions: PC5
Method: as §1

[4] = test system: Pseudomonas mendocina KR1 (T4MO); test: Enantiomeric ratio of monoepoxides (chiral GC), strain KR1; type: cell-based
Method: as §1

[5] = test system: Pseudomonas pickettii PKO1 (T3MO); test: Enantiomeric ratio of monoepoxides (chiral GC), strain PKO1; type: cell-based; conditions: KO1 (PKO1)
Method: as §1

[6] = target: T1, alkene monooxygenase (Xanthobacter versatilis, UniProt O87082); conditions: cited from earlier work
T1 sequence (O87082 1-497): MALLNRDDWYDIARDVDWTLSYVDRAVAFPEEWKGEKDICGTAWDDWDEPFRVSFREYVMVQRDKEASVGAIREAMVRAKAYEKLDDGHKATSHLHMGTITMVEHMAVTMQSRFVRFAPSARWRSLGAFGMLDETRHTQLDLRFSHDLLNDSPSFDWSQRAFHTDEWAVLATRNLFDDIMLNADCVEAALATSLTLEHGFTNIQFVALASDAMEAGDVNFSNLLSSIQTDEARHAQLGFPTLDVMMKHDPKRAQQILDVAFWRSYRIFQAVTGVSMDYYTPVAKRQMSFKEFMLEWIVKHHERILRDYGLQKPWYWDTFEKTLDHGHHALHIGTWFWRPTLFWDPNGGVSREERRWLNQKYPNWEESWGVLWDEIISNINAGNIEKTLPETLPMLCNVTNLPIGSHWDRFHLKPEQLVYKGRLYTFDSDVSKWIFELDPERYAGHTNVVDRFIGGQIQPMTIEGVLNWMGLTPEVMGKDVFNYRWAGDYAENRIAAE

[7] = test system: Burkholderia cepacia G4; test: Alkene degradation assay, whole cells of Burkholderia cepacia G4 (T2MO); type: cell-based; conditions: G4; following 30 minutes incubation
Source text: (§2) Pseudomonas mendocina KR1 (Yen et al., J. Bacteriol., 173:5315–5327 (1991)), the T4MO mutant of KR1 Pseudomonas mendocina ENVpmx1 (McClay et al., The 97th Annual Meeting of ASM, Abstract K36, page 348 (1997)), Pseudomonas pickettii PKO1 (Byrne et al., Gene, 154:65–70 (1995)), Burkholderia cepacia G4 (Shields et al., Appl. Environ. Microbiol., 55:1624–1629 (1989)), Burkholderia sp. strain ENVBF1 (McClay et al., Appl. Environ. Microbiol., 62:2716–2722 (1996)), and Pseudomonas sp. strain ENVPC5 (McClay et al., 1996, supra) were cultured overnight at 30° C. in shake flasks containing basal salts medium (BSM; 10) supplemented with 0.4% sodium glutamate. Toluene was included in the vapor phase when induction of the toluene oxygenases was desired. Prior to substrate degradation assays the cultures were harvested by centrifugation and resuspended in BSM to an optical density at 550 nm (OD550) of 2, unless otherwise indicated. A standard curve of optical density vs. protein concentration for each strain was used to calculate the amount of protein per ml of the resuspended cultures.
(§3) To determine the range of alkenes that could be degraded by the toluene monooxygenase and the degradation kinetics of the toluene monooxygenases, 5-ml aliquots of the resuspended cultures were dispensed to 25-ml serum vials and crimp sealed with Teflon™ faced septa. Gaseous alkene substrates were added as pure compounds by using a gas-tight syringe, and other alkene substrates were added from stock solutions (20% in dimethylformamide). The amount of individual alkene substrates added were as follows: 1-butene, 2-butene, and 1,3-butadiene, 2.2 μM; epoxy butane, 1,3-butadiene monoxide, and epichlorohydrine, 8 μM; 1- and 2-pentene, 9 μM; hexene, 4 μM; octadiene, 4.5 μM; 2-chloropropene, 11 μM; and, 2,3-dichloropropene, 12 μM unless otherwise indicated. The serum vials were then placed horizontally on a rotary shaker operating at 100 rpm. During incubation the temperature was maintained between 20–22° C. for the Pseudomonads and at 37° C. for E. coli. The serum vials were periodically removed from the shaker and a 10–25 μl portion of the headspace gas was withdrawn through the septa and injected onto a gas chromatograph (GC) equipped with a 30 m Vocol column (Supelco Inc. Bellefonte, Pa.) maintained at 160° C., and a flame ionization detector. This allowed the monitoring of both the alkene compounds as well as the epoxide products. The same protocol was used to detect the formation of 1,2-butanediol and butadiene diepoxide, except that 1 μl of the culture media was injected onto the column rather than the headspace gas.

[8] = test system: Pseudomonas mendocina KR1; test: Alkene degradation assay, whole cells of Pseudomonas mendocina KR1 (T4MO); type: cell-based
Source text: as §2, §3

[9] = test system: Pseudomonas sp. strain ENVPC5; test: Alkene degradation assay, whole cells of Pseudomonas sp. strain ENVPC5 (T4MO); type: cell-based; conditions: following 30 minutes incubation
Source text: as §2, §3

[10] = test system: Burkholderia sp. strain ENVBF1; test: Alkene degradation assay, whole cells of Burkholderia sp. strain ENVBF1 (T4MO); type: cell-based; conditions: ENVBF1; following 30 minutes incubation
Source text: as §2, §3

[11] = test system: Pseudomonas mendocina ENVpmx1; test: Alkene degradation assay, T4MO deficient strain Pseudomonas mendocina ENVpmx1; type: cell-based
Source text: as §2, §3

[12] = test system: E. coli (pRS202) expressing T4MO; test: Alkene degradation assay, E. coli (pRS202) expressing T4MO; type: cell-based, Escherichia coli DH10B
Method: Escherichia coli DH10B containing the plasmid pRS202 (Pikus et al., Biochemistry, 35:9106–9119 (1996); Pikus et al., Biochemistry, 36:9283–9289 (1997)) was prepared in a similar manner except it was grown at 37° C. in LB media, and was resuspended to an OD550 of 4 in LB media with 0.3–1 mM IPTG to induce expression of T4MO.
as §3

[13] = test system: wild type organisms; test: Alkene oxidation and epoxide detection (GC, PNBP), wild type organisms; type: cell-based; conditions: all the wild type strains
Method: as §3
The only epoxides relevant to this study that were commercially available were 1,3-butadiene mono-, and diepoxide. These were used in GC analyses to determine retention times and to quantitate the conversion of 1,3-butadiene to the corresponding epoxides. To verify that the observed peaks were epoxides, a modification of the method of van Hylckama et al. (van Hylckama et al., Appl. Environ. Microbiol., 62:3304–3312 (1996)) was used, whereby epoxides were conjugated with PNBP to form intensely colored adducts of the epoxides. Serum vials were prepared as before, except that prior to sealing the vials, Durham tubes were placed inside the vials, with the opening of the Durham tube extending out of the liquid. The substrate was then added and the vials were incubated with moderate shaking at a 45° angle to prevent the culture liquid from entering the Durham tube. The transformation of the alkenes was monitored by GC analysis. […] The vials were then allowed to incubate for 8 hours before they were opened and the epoxide containing PNBP withdrawn. The total volume of PNBP solution was combined with an equal volume of acetone-triethylamine (50:50) and mixed rapidly. Epoxide/PNBP adducts were detected by spectra analysis (400–700 nm).

[14] = test system: T4MO; test: Induction of T4MO by alkenes and toluene (FIG. 14); type: cell-based; conditions: at 120 minutes
Method: The data points are the average of duplicate samples, with the range shown as error bars. The relative light units registered by the 2-pentene sample at 120 minutes was approximately 10^5.

[15] = target: soluble methane monooxygenase (MMO) (Methylosinus trichosporium, UniProt P27353); conditions: cited from earlier work
soluble methane monooxygenase (MMO), sequence (P27353 whole entry): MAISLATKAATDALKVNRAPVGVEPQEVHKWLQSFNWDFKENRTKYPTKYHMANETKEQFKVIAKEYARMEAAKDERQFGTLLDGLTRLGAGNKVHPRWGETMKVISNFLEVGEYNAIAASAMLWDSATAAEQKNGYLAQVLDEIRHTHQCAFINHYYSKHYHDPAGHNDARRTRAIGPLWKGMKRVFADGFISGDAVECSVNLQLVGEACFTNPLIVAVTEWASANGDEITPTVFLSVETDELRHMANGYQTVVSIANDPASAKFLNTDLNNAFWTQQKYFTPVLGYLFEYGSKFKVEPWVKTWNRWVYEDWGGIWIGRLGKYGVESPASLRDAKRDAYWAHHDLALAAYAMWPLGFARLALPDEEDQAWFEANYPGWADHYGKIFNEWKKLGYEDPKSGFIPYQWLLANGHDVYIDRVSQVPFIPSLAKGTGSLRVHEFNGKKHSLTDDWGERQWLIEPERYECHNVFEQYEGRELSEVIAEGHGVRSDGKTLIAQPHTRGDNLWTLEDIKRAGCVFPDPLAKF
soluble methane monooxygenase (MMO), sequence (P27354 whole entry partner): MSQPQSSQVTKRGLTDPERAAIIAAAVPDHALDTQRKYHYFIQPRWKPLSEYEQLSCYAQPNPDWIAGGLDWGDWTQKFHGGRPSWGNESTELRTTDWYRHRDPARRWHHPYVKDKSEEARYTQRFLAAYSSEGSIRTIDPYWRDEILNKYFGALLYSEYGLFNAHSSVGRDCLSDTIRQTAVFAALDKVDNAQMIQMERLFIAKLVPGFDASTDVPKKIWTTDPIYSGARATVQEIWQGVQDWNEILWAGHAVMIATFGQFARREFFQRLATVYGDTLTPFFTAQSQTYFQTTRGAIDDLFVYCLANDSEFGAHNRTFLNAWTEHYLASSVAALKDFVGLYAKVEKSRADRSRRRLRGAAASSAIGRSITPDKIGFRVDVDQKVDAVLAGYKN
soluble methane monooxygenase (MMO), sequence (P27355 whole entry partner): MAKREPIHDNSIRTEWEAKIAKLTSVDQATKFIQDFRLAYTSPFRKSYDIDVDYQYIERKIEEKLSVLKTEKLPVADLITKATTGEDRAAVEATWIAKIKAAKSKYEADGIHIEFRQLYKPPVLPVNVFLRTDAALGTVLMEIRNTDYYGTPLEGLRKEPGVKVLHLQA
soluble methane monooxygenase (MMO), sequence (P27356 whole entry partner): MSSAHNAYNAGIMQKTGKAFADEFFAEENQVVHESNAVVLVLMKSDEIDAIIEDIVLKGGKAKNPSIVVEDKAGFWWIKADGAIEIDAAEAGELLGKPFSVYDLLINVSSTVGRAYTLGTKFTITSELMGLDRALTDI

[16] = target: T2, styrene monooxygenase (Pseudomonas sp, UniProt O50214); conditions: cited from earlier work
T2 sequence (O50214 1-415): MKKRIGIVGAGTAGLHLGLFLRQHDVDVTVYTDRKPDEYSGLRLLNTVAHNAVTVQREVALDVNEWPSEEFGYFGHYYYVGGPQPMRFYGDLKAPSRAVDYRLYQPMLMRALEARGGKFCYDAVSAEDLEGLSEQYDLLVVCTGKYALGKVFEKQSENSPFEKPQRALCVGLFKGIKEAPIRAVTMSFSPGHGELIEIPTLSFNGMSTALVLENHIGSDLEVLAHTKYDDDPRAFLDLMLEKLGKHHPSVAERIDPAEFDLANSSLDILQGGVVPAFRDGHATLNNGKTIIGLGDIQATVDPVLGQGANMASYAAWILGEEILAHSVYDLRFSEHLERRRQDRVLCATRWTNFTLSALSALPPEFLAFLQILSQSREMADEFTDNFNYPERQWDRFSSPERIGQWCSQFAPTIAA

## C=CCC [1-butene]
[1]
  monoepoxide formed, R enantiomer: 9.8%
  monoepoxide formed, S enantiomer: 90.2%
[2]
  monoepoxide formed, R enantiomer: 6.5%
  monoepoxide formed, S enantiomer: 93.5%
[3]
  monoepoxide formed, R enantiomer: 11% and 11.3%
  monoepoxide formed, S enantiomer: 89% and 88.7%
[4]
  monoepoxide formed, R enantiomer: 0%
[5]
  monoepoxide formed, R enantiomer: 8.3%
  monoepoxide formed, S enantiomer: 92.7%
[6]
  R isomer formed: 94%

## CC=CCC [2-pentene]
[7]
  Specific activity of toluene monooxygenase, substrate degraded: 0.16 μM substrate degraded/minute/mg protein
[8]
  initial oxidation rate: 0.33 mM/min/mg protein
[8]; following 30 minutes incubation
  Specific activity of toluene monooxygenase, substrate degraded: 0.33 μM substrate degraded/minute/mg protein
[9]
  Specific activity of toluene monooxygenase, substrate degraded: 0.18 μM substrate degraded/minute/mg protein
[10]
  Specific activity of toluene monooxygenase, substrate degraded: 0.14 μM substrate degraded/minute/mg protein
[11]
  degradation compared with the wild type strains: more rapidly and to a greater extent than the wild type strains
[12]
  degradation by the clone of T4MO: degraded
[13]
  degradation: efficiently degraded
[14]
  induction of T4MO, relative light units: approximately 10^5 relative light units

## C=CCCl [3-chloropropene]
[6]
  (S) epoxide formed: 80%

## C=CC(C)C [3-methyl-butene]
[15]
  oxidation by MMO: unable to oxidize

## C1=CCCCC1 [cyclohexene]
[15]
  oxidation by MMO: unable to oxidize

## C=Cc1ccccc1 [styrene]
[16]
  enantiomer excess of (S)-styrene oxide formed: > 99%
